Results: patent US20170052170A1, “NOVEL CELL LINES AND METHODS” (priority 2009, published 2017)

Molecular target: T1, sweet taste receptor (endogenously expressed T1R2/T1R3) (Homo sapiens, UniProt Q7RTX0+Q8TE23)
T1 construct: endogenous in cells; host or cells: HuTu (ATCC HTB-40), H716 (ATCC CCL-251), HEK 293T (ATCC CRL-11268); some with prior UV treatment
T1 sequence (Q8TE23 20-839): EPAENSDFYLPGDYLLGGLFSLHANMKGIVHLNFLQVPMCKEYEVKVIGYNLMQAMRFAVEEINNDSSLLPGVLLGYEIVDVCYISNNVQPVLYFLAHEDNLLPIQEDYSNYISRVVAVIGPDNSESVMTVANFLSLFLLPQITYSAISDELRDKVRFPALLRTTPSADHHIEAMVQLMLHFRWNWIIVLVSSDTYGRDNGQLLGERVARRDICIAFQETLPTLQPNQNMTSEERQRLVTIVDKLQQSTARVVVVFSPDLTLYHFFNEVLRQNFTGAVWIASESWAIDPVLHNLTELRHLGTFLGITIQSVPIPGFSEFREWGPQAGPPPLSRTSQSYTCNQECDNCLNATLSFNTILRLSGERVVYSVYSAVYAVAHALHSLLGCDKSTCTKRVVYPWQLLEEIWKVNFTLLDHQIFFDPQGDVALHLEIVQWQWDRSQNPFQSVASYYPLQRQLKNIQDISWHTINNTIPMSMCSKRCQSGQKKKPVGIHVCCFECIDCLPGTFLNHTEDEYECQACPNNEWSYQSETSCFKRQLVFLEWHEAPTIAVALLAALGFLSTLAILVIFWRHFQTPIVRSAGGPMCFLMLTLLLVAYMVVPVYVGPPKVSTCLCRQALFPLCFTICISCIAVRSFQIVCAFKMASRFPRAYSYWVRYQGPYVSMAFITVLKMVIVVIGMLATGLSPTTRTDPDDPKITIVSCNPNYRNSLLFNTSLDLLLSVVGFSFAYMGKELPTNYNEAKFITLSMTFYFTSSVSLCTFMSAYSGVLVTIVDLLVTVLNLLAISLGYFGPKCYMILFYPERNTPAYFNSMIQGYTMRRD
T1 sequence (Q7RTX0 21-852): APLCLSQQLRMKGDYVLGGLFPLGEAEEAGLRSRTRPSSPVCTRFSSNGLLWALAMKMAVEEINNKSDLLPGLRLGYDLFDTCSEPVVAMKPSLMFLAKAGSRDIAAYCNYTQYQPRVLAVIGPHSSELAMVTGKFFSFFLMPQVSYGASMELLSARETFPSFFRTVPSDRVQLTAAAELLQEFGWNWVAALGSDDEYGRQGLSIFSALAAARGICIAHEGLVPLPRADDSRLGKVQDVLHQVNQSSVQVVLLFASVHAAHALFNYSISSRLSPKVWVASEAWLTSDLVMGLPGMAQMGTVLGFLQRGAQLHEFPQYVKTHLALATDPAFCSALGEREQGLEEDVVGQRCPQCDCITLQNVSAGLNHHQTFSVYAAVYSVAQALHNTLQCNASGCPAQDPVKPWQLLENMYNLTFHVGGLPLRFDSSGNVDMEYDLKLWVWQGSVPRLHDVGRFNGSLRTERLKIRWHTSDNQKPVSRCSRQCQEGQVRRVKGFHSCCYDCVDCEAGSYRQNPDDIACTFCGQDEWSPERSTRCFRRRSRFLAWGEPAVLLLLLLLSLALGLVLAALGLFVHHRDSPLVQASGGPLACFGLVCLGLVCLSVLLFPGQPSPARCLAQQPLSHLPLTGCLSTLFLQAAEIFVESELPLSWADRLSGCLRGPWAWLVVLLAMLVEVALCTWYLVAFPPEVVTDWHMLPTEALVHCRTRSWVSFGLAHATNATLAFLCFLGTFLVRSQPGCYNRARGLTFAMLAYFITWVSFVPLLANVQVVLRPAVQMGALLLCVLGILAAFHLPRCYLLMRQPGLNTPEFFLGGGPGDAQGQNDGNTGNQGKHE
Test: calcium flux response to fructose of cells cultured from individual isolated HuTu, H716 and 293T cells
Assay type: cell-based
Details: fructose final concentration 15 mM, control response subtracted
Protocol: FIGS. 28 A-C depict representative traces of the functional cell-based response of cells of the invention to the addition of fructose (to a final concentration of 15 mM) compared to background. Cells cultured from individual isolated cells were tested (black traces) compared to control cells (gray traces). […] The cell-based assay was designed to report calcium flux using a fluorescent calcium signaling dye. Fluorescent assay response is plotted along the Y-axis and time is indicated along the X-axis. Arrows indicate the timepoint at which fructose was added. FIG. 28A depicts traces from cells cultured from an individual HuTu cell compared to control. FIG. 28B depicts traces from cells cultured from an individual H716 cell compared to control. FIG. 28C depicts traces from cells cultured from an individual 293T cell compared to control.
In a specific aspect, provided herein is a method for isolating a cell that endogenously expresses a sweet taste receptor T1R2 subunit and/or sweet taste receptor T1R3 subunit, wherein the method comprises the steps of: • a) providing a population of cells; • b) introducing into the cells a signaling probe or molecular beacon that detects expression of T1R2 and/or introducing into the cells a molecular beacon that detects expression of T1R3; and • c) isolating cells that express a sweet taste receptor T1R2 subunit and/or sweet taste receptor T1R3 subunit. […]

How did the “functional cell-based (calcium flux) response compared to control cells” value turn out when O=C(CO)[C@@H](O)[C@H](O)[C@H](O)CO [fructose] was run?
The value was “higher response”.
